The assay is described as follows: Compound was tested for the inhibition of [35S]GTP-gamma-S, binding in Guinea pig Caudate stimulated by the Opioid receptor delta 1 agonist Delta-SNC80. On the technique in general: GTPγS is a poorly hydrolysed GTP analogue; its binding reports G protein activation.

Structures are written as SMILES.

For orientation: Ki means the equilibrium dissociation constant of an inhibitor or competing ligand from its target. Take `CN1CC[C@]2(c3cccc(O)c3)Cc3ccccc3C[C@]2(C)C1` [3-((4aS,10aS)-2,10a-Dimethyl-1,3,4,5,10,10a-hexahydro-2H-benzo[g]isoquinolin-4a-yl)-phenol]: the Ki turned out to be 222 nM.
For `C[C@]12Cc3ccccc3C[C@@]1(c1cccc(O)c1)CCN(CCc1ccccc1)C2` [3-((4aS,10aS)-10a-Methyl-2-phenethyl-1,3,4,5,10,10a-hexahydro-2H-benzo[g]isoquinolin-4a-yl)-phenol], affinity was put at a Ki of 184 nM.
